Measured values from PMC3734263, “Fatty Acid Amide Hydrolase-Dependent Generation of Antinociceptive Drug Metabolites Acting on TRPV1 in the Brain” (PLoS ONE, 2013).
pEC50: −log10 of the molar value. Values joined by “and” are separate entries in the source; they are usually repeats but may differ in a detail not shown here. Equal values may be shown once. Read-outs that look alike come from different tables or passages of the source. Blank lines part the entries; values can stand above or below the molecule they belong to.

How the values were obtained:
rats [1] = assay: Paw pressure test, rat
Description: The behavioural tests were performed in a quiet room and evaluated by a single investigator in a blinded manner. Treatments and/or genotypes were randomized in blocks and the number of animals in each block corresponded to the number of treatments and/or genotypes compared. […] Each animal was exposed to only one treatment.
The rats were submitted to the paw pressure test, using an Ugo Basile analgesy meter with a probe tip diameter of 1 mm (Bioseb, France). Nociceptive thresholds, expressed in grams (g), were measured by applying an increasing pressure to the right hind paw until a squeak (vocalization thresholds) was obtained (cut-off 750 g). Two consecutive stable vocalisation threshold values were first obtained (baseline).
Intrathecal injections were performed on anaesthetised rats held in one hand by the pelvic girdle. A 25 gauge 1 inch needle connected to a 25 µl Hamilton syringe was then inserted into the subarachnoidal space between lumbar vertebrae L5 and L6 until a tail flick was elicited. The syringe was held in position for few seconds after the injection of a volume of 10 µl [49]. All injections were performed under isoflurane anaesthesia (4% induction, 2% maintenance).

[2] = tested on: spinal serotonergic pathways; assay: Spinal serotonin content after lesion of descending serotonergic pathways; type: in vivo; settings: 5,7-DHT 100 µg/rat intrathecal, 7 days; control 529±34
rats [3] = assay: Formalin test, rat; type: in vivo
Description: (§1) The animals received an intraplantar injection of a 2.5% formalin solution (50 µl rat, 25 µl mouse) into a hind paw. The time spent biting and licking of the injected paw was monitored during the two typical phases of the nociceptive response (phase I: 0–5 min; phase II: 20–40 min in rats or 15–40 min in mice).

[4] = Contents of amines and lipid metabolites in blood and brain after i.p. injection in mice (LC-MS/MS); type: in vivo, mouse
Description: Twenty min after drug administration, the animals were anesthetized by CO2 (rats) or isoflurane (mice) inhalation and decapitated. The brain was removed from the skull and blood was collected in test tubes, containing 60 µl buffered citrate, and the tissues snap frozen in liquid nitrogen before storage at −70°C.
(§2) The whole brain was homogenized in ice-cold 10 mM Tris buffer (ml/g tissue) at pH 7.6. The buffer solution contained 1 mM EDTA, 0.3 mM ascorbic acid and 10 µM methylarachidonylfluorophosphonate (MAFP) to prevent degradation of AM404, arvanil, olvanil, anandamide and 2-arachidonoylglycerol. Aliquots (200 µl) of blood and homogenates were precipitated with 1 ml ice-cold acetone, containing AM404-D4 (5 nM) or anandamide-D8 (100 nM) as internal standard. After centrifugation at 25,200 g for 30 min at 4°C, the supernatants were collected in polypropylene tubes and vacuum evaporated. The protein content of the pellet was determined with Coomassie protein assay (Pierce; Illinois, USA), using bovine serum albumin as standard. […] Samples were analyzed on a Waters Aquity UPLC system coupled to a Sciex 5500 tandem mass spectrometer (LC-MS/MS; AB Sciex; Massachusetts, USA) or a Perkin Elmer 200 HPLC system coupled to an API 3000 tandem mass spectrometer (LC-MS-MS; Applied Biosystems/MDS-SCIEX).
Quantification of AM404, HPODA, arvanil and olvanil. Samples were analyzed on a Waters Aquity UPLC system coupled to a Sciex 5500 tandem mass spectrometer. Sample aliquots of 5 µl were injected into an Acquity UPLC BEH C18 column (100 × 2 mm, 1.7 µm; Waters) held at 50°C. All mobile phases were water-acetonitrile gradients, containing 0.1% formic acid and using a flow rate of 400 µl/min. The acetonitrile content was initially 30%, then increased linearly to 100% over 7 min and kept at this level for 4 min, followed by an equilibration period at 30% for 2 min. The electrospray interface was operating in the positive ion mode at 550°C and the ion spray voltage was set to 5000 volts. The mass transitions (m/z) used were the following: 396.2/110.1 for AM404, 374.2/110.0 for HPODA, 400.2/114.0 for AM404-D4, 440.3/137.1 for arvanil and 418.3/137.1 for olvanil. The declustering potentials were between 96 and 130 volts and the collision energies between 25 and 41 volts.
Quantification of 4-aminophenol and HMBA. Sample aliquots of 5 µl were injected into a Hypercarb column (50 × 2.1 mm; Thermo). All mobile phases were water-acetonitrile gradients, containing 0.1% formic acid. The acetonitrile content was initially 2%, then increased linearly to […] over 5 min and then kept at 100% for 1 min, followed by an equilibration period at 2% for 1.5 min. The electrospray ion source was set at 550°C and used in the positive ion mode with an ion spray voltage of 5000. […] HMBA loses the amino group already in the source of the MS and therefore the mass transition used was 137.0/94.0. The declustering potentials were 100 and 90 volts and the collision energies 21 and 29 volts. No internal standard was used for these analyses.
The contents of the compounds were expressed either in moles or as normalized peak areas (nPA) and related to the protein content in the samples. The nPA was obtained by dividing the peak area of the analyte with the peak area for the internal standard in the same sample. The detection limits were calculated as the concentrations corresponding to three times the standard deviation of the blanks. When levels were below detection limit, numerical values of half the detection limit were used in the calculations.

[5] = type: in vivo, rat
Description: […] The brain was removed from the skull and blood was collected in test tubes, containing 60 µl buffered citrate, and the tissues snap frozen in liquid nitrogen before storage at −70°C.
as §2
Quantification of AM404, HPODA, arvanil and olvanil. Samples were analyzed on a Waters Aquity UPLC system coupled to a Sciex 5500 tandem mass spectrometer. […]

TRPV1 = biological target: T1, TRPV1 (Rattus norvegicus, UniProt O35433); assay: TRPV1 activation assessed as nerve-mediated vasorelaxation in rat isolated mesenteric arteries; type: cell-based
T1 construct: rat mesenteric arterial segments precontracted with phenylephrine; from tissue; host or cells: rat isolated mesenteric arterial segments (Sprague-Dawley rats)
T1 sequence (O35433 whole entry): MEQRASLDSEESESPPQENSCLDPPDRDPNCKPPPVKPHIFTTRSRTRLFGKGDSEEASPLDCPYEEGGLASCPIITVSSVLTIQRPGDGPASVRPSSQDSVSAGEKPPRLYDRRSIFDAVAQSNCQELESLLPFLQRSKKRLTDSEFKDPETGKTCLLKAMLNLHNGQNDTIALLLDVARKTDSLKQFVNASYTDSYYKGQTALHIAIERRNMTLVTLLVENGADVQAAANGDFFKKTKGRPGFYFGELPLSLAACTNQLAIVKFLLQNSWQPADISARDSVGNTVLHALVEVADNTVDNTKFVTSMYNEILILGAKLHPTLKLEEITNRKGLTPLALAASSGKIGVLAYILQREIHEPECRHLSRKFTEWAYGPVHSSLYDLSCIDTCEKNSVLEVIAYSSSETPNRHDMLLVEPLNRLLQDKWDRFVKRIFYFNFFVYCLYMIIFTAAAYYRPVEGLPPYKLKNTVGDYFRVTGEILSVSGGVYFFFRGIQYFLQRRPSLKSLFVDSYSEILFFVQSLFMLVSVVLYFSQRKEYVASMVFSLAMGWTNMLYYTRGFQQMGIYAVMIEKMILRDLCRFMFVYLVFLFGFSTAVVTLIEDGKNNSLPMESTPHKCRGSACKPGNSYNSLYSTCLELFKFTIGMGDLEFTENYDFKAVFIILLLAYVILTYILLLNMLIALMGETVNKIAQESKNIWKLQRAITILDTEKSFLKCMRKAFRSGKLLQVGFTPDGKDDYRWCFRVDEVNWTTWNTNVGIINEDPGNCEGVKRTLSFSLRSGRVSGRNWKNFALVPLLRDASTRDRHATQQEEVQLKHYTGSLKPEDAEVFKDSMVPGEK
Description: TRPV1 activation was assessed indirectly on rat isolated mesenteric arteries, using nerve-mediated vasorelaxation as readout. Briefly, arterial segments (2 mm long) were suspended between two stainless steel wires in temperature-controlled tissue baths (37°C), containing aerated (95% O2 and 5% CO2) physiological salt solution (composition in mM: NaCl 119, KCl 4.6, CaCl2 1.5, MgCl2 1.2, NaHCO3 15, NaH2PO4 1.2 and D-glucose 6; pH 7.4), under a passive load of 2 mN. One of the wires was connected to a force-displacement transducer model FT03 C (Grass Instruments; Rhode Island, USA) for isometric tension recording. Vasorelaxation was studied in arterial segments submaximally contracted with phenylephrine. Increasing concentrations of AM404, arvanil, olvanil and HPODA in the absence and presence of capsazepine (3 µM) were then added cumulatively to determine concentration-response relationships. All experiments were performed in the presence of indomethacin (10 µM) and N^ω-nitro-L-arginine (300 µM) to reduce cyclooxygenase and nitric oxide synthase activity, respectively.
Data are presented as the mean ± SEM, and n indicates the number of animal tested in each group. pEC50 of the lipid metabolites indicates the negative log concentration that elicited half-maximal vasorelaxation. Mann-Whitney U test or Student’s t-test was used when two groups were compared. When multiple groups were compared, Kruskal-Wallis one-way ANOVA followed by Dunn’s multiple comparisons test was used. Data from the paw pressure test were analyzed by repeated measures two-way ANOVA followed by Sidak’s or Dunnett’s multiple comparisons test. The level of statistical significance was set at p<0.05. GraphPad Prism 6.0 software (California, USA) was used in all calculations and statistical analyses.

[6] = tested on: patients with postoperative pain; design: method as in PMID 18843665; settings: single oral dose of 1000 mg; cited from earlier work
mice = assay: Formalin test, mouse; type: in vivo; settings: mice
Description: as §1

human TRPV1 = tested on: human TRPV1; design: method as in PMID 11033355; settings: HEK293 cells expressing human TRPV1, fluorometric calcium imaging; cited from earlier work
[7] = AM251 3 mg/kg i.p., 4-aminophenol 100 mg i.p.
[8] = PMSF 10 mg/kg s.c., 4-aminophenol 100 mg/kg i.p.
[9] = capsazepine 10 mg/kg i.p., 4-aminophenol 100 mg/kg

SMILES: NCCc1c[nH]c2c(O)cc(O)cc12 [5,7-DHT, 5,7-dihydroxytryptamine]
effect on antinociceptive effect of 4-aminophenol, rat paw pressure test (rats [1]; 5,7-DHT 100 µg/rat intrathecal, 7 days before test, 4-aminophenol 100 mg/kg i.p.): inhibited the antinociceptive effect
spinal serotonin content [2]: 359±38 ng/g tissue wet weight

SMILES: Cc1c(C(=O)NN2CCCCC2)nn(-c2ccc(Cl)cc2Cl)c1-c1ccc(I)cc1 [AM251, N-(piperidin-1-yl)-5-(4-iodophenyl)-1-(2,4-dichlorophenyl)-4-methyl-1H-pyrazole-3-carboxamide]
effect on antinociceptive effect of 4-aminophenol, rat paw pressure test (rats [1]; [7]): prevented the antinociceptive effect
effect on antinociceptive effect of 4-aminophenol, rat formalin test (rats [3]; [7]): prevented the antinociceptive effect

SMILES: CCCCC/C=C\C/C=C\C/C=C\C/C=C\CCCC(=O)Nc1ccc(O)cc1 [AM404, N-(4-Hydroxyphenyl)-5Z,8Z,11Z,14Z-eicosatetraenamide]
Brain AM404 ([4]; 20 min after 4-AP 30 mg/kg i.p., mouse): 411 pmol/g and 411 ± 134 pmol/g
Brain AM404 ([4]; 20 min after 4-AP 100 mg/kg i.p., mouse): 4829 ± 1435 pmol/g
brain content in FAAH−/− mice compared to FAAH+/+ littermates ([4]; 20 min after i.p. 4-aminophenol (30 and 100 mg/kg) or HMBA (300 mg/kg)): substantially reduced
quotient between the brain contents of lipid metabolite and its parent amine ([4]; mouse, in vivo): 1∶1,500
content of AM404 in rat brain at different time points ([5]; 4-aminophenol 100 mg/kg i.p., 15 min and 30 min): Significant amounts
pEC50 (TRPV1): 7.50
times more potent than HPODA as TRPV1 activator (TRPV1; vasorelaxation readout): 3.3 times

brain content in FAAH−/− mice compared to wild-type littermates ([4]; mouse, in vivo): no significant difference
increase of brain content in FAAH−/− mice compared to wild-type littermates ([4]; mouse, in vivo, 20 min): 3 fold
EC50 (TRPV1; capsazepine-sensitive vasorelaxation, rat mesenteric arterial segments precontracted with phenylephrine, read-out: pEC50 (negative log concentration eliciting half-maximal vasorelaxation) (converted)): 100 nM
SMILES: CCCCCCCC/C=C\CCCCCCCC(=O)Nc1ccc(O)cc1 [HPODA, N-(4-hydroxyphenyl)-9Z-octadecenamide]

SMILES: O=S(=O)(F)Cc1ccccc1 [PMSF, phenylmethylsulfonyl fluoride]
effect on antinociceptive effect of 4-aminophenol, rat paw pressure test (rats [1]; [8]): inhibited the antinociceptive effect
effect on antinociceptive effect of 4-aminophenol, rat formalin test (rats [3]; [8]): inhibited the antinociceptive effect
effect on formation of AM404 in rat brain ([5]; PMSF 10 mg/kg s.c. pretreatment, 20 min after 4-aminophenol 100 mg/kg i.p.): substantially reduced the formation of AM404

SMILES: CC(=O)Nc1ccc(O)cc1 [Paracetamol]
NNT (numbers needed to treat) for at least 50% pain reduction over 4–6 hours [6]: 3.6

SMILES: COc1ccccc1N1CCN(CCN(C(=O)C2CCCCC2)c2ccccn2)CC1.O=C(O)/C=C\C(=O)O [WAY-100635, N-[2-[4-(2-methoxyphenyl)-1-piperazinyl]ethyl]-N-2-pyridinylcyclohexane-carboxamide maleate]
effect on antinociceptive effect of 4-aminophenol, rat formalin test (rats [3]; WAY-100635 40 µg/rat intrathecal 5 min before 4-aminophenol 100 mg/kg i.p.): prevented

SMILES: Oc1cc2c(cc1O)CN(C(=S)NCCc1ccc(Cl)cc1)CCC2 [capsazepine, N-[2-(4-Chlorophenyl)ethyl]-1,3,4,5-tetrahydro-7,8-dihydroxy-2H-2-benzazepine-2-carbothioamide]
effect on antinociceptive effect of 4-aminophenol, rat paw pressure test (rats [1]; [9]): prevented the antinociceptive effect
effect on antinociceptive effect of 4-aminophenol in formalin test (mice; capsazepine 100 nmol into lateral ventricle 5 min prior to 4-aminophenol 30 mg/kg i.p.): eliminated the antinociceptive effects
effect on antinociceptive effect of HMBA in formalin test (mice; capsazepine 100 nmol into lateral ventricle 5 min prior to HMBA 100 mg/kg i.p.): eliminated the antinociceptive effects
effect on antinociceptive effect of 4-aminophenol, rat formalin test (rats [3]; [9]): prevented the antinociceptive effect
effect on vasorelaxation evoked by arvanil, olvanil and HPODA (TRPV1; capsazepine 3 µM): significantly suppressed the vasorelaxation

SMILES: Cc1c(N(C)CS(=O)(=O)[O-])c(=O)n(-c2ccccc2)n1C.[Na+] [dipyrone]
antinociception in formalin test (mice; dipyrone 50 mg/kg i.p.): effective antinociceptive agent

SMILES: CCCCCCCC/C=C\CCCCCCCC(=O)NCc1ccc(O)c(OC)c1 [olvanil, N-(4-hydroxy-3-methoxybenyl)-9Z-octadecenamide]
Brain Olvanil ([4]; 20 min after HMBA 300 mg/kg i.p., mouse): 45 ± 5.6 pmol/g
brain content in FAAH−/− mice compared to FAAH+/+ littermates ([4]; mouse, in vivo): substantially reduced
times more potent than AM404 (human TRPV1): approximately 50 times
pEC50 (TRPV1): 9.50
times more potent than AM404 as TRPV1 activator (TRPV1; vasorelaxation readout): > 100 times and 110 times
times more potent than HPODA as TRPV1 activator (TRPV1; vasorelaxation readout): > 300 times

SMILES: CN1[C@@H]2CC[C@H]1C[C@@H](OC(=O)c1c[nH]c3ccccc13)C2 [tropisetron, Tropisetron]
effect on antinociceptive effect of 4-aminophenol, rat paw pressure test (rats [1]; tropisetron 500 ng/rat intrathecal 5 min before 4-aminophenol 100 mg/kg i.p.): prevented
